Results as given in ChEMBL document CHEMBL5385847, “Design, synthesis and biological evaluation of a new class of 7H-pyrrolo[2,3-d]pyrimidine derivatives as Mps1 inhibitors for the treatment of breast cancer” (Eur J Med Chem, 2023).
The source made the active and inactive calls. The rule behind the calls is not given here.

Legend:
MCF7 [1] = experiment: Antiproliferative activity against human MCF7 cells assessed as inhibition of cell viability incubated for 24 to 72 hrs by MTT assay; assay type: functional, cell-based; conditions: dose <= 10.0 µM, time 24-72 hrs
MCF7 [2] = experiment: Induction of apoptosis in human MCF7 cells assessed as necrotic cells at 1 uM incubated for 48 hrs by Annexin V-FITC/PI staining based flow cytometry (reference value: 0.03 %); assay type: functional
GES1 = experiment: Antiproliferative activity against human GES1 cells assessed as inhibition of cell viability by MTT assay; assay type: toxicity, cell-based
ES-2 = experiment: Antiproliferative activity against human ES2 cells assessed as inhibition of cell viability by MTT assay; assay type: functional, cell-based
[3] = target: Insulin-like growth factor 1 receptor (Homo sapiens) (UniProt P08069); experiment: Inhibition of human IGF-1R at 1 uM by KINOMEscan assay relative to control
MCF7 [4] = experiment: Induction of apoptosis in human MCF7 cells assessed as early apoptotic cells at 1 uM incubated for 48 hrs by Annexin V-FITC/PI staining based flow cytometry (reference value: 1.19 %); assay type: functional
AGS = experiment: Antiproliferative activity against human AGS cells assessed as inhibition of cell viability by MTT assay; assay type: functional, cell-based
HEK293 = experiment: Antiproliferative activity against HEK293 cells assessed as inhibition of cell viability by MTT assay; assay type: toxicity, cell-based; conditions: human
MCF7 [5] = experiment: Induction of DNA damage in human MCF7 cells assessed as increase in gamma-H2AX level incubated for 2 hrs by Western blot analysis; assay type: functional, cell-based; conditions: dose <= 3.0 µM
[6] = Toxicity in BALB/C mouse xenografted with mouse 4T1-Luc cells assessed as histological change in heart at 30 to 60 mg/kg, po qd treated for 15 days by H and E staining based analysis; assay type: organism-based; conditions: in vivo, 360 h, dose 30-60 mg/kg, time 15 day
4T1 [7] = experiment: Induction of apoptosis in 4T1 cells assessed as necrotic cells at 0.5 uM incubated for 48 hrs by Annexin V-FITC/PI staining based flow cytometry (reference value: 0.20 %); assay type: functional, Mus musculus
[8] = target: ALK tyrosine kinase receptor (Homo sapiens) (UniProt Q9UM73); experiment: Inhibition of human ALK at 1 uM by KINOMEscan assay relative to control
[9] = Toxicity in BALB/C mouse xenografted with mouse 4T1-Luc cells assessed as histological change in lung at 30 to 60 mg/kg, po qd treated for 15 days by H and E staining based analysis; assay type: organism-based; conditions: in vivo, 360 h, dose 30-60 mg/kg, time 15 day
MCF7 [10] = experiment: Induction of apoptosis in human MCF7 cells assessed as early apoptotic cells at 5 uM incubated for 48 hrs by Annexin V-FITC/PI staining based flow cytometry (reference value: 1.19 %); assay type: functional
[11] = target: T1, Dual specificity protein kinase TTK (Homo sapiens) (UniProt P33981); experiment: Inhibition of Mps1 phosphorylation in mouse 4T1-Luc cells xenografted in BALB/C mouse at 30 to 60 mg/kg, po qd treated for 15 days by IHC analysis; assay type: organism-based; conditions: dose 30-60 mg/kg, time 15.0 day
T1 sequence (whole entry): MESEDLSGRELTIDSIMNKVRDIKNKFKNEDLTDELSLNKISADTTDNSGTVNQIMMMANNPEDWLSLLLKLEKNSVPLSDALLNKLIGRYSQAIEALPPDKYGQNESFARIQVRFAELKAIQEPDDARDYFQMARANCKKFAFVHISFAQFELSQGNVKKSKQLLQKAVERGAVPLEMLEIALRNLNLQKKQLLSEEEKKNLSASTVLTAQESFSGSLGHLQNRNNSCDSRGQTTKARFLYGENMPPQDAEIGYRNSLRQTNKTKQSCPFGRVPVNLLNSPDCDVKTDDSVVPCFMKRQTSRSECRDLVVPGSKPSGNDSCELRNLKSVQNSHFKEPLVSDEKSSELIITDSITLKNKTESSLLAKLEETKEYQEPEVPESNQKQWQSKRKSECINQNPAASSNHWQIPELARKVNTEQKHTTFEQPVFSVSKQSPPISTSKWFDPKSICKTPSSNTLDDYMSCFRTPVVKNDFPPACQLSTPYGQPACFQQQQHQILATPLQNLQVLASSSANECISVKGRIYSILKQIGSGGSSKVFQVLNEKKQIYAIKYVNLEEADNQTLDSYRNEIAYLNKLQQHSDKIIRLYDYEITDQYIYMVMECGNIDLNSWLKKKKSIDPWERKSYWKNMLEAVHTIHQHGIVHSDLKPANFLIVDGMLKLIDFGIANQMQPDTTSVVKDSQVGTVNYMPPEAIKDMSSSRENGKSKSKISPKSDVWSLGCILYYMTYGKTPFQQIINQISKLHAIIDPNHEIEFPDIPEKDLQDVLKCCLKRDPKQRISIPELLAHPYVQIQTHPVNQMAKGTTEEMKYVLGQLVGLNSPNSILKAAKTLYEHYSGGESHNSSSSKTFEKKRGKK

HCT-116 = experiment: Antiproliferative activity against human HCT-116 cells assessed as inhibition of cell viability upto 10 uM incubated for 72 hrs by MTT assay; assay type: functional, cell-based
4T1 [12] = experiment: Induction of apoptosis in 4T1 cells assessed as early apoptotic cells at 5 uM incubated for 48 hrs by Annexin V-FITC/PI staining based flow cytometry (reference value: 0.32 %); assay type: functional, Mus musculus
[13] = target: Hepatocyte growth factor receptor (Homo sapiens) (UniProt P08581); experiment: Inhibition of human Met at 0.1 uM by KINOMEscan assay relative to control
[14] = Toxicity in BALB/C mouse xenografted with mouse 4T1-Luc cells assessed as histological change in liver at 30 to 60 mg/kg, po qd treated for 15 days by H and E staining based analysis; assay type: organism-based; conditions: in vivo, 360 h, dose 30-60 mg/kg, time 15 day
MCF7 [15] = experiment: Induction of apoptosis in human MCF7 cells assessed as late apoptotic cells at 5 uM incubated for 48 hrs by Annexin V-FITC/PI staining based flow cytometry (reference value: 0.63 %); assay type: functional
[16] = tested on: Tyrosine-protein kinase ABL1 (Homo sapiens), P00519 [T315I]; experiment: Inhibition of human Abl T315I mutant at 1 uM by KINOMEscan assay relative to control
4T1-Luc = experiment: Antitumor activity against mouse 4T1-Luc cells xenografted in BALB/C mouse assessed as reduction in tumor growth at 30 to 60 mg/kg, po qd measured after 10 days by IVIS analysis; assay type: functional, organism-based; conditions: dose 30-60 mg/kg, time 10.0 day
[17] = Toxicity in BALB/C mouse xenografted with mouse 4T1-Luc cells assessed as histological change in spleen at 30 to 60 mg/kg, po qd treated for 15 days by H and E staining based analysis; assay type: organism-based; conditions: in vivo, 360 h, dose 30-60 mg/kg, time 15 day
MCF7 [18] = experiment: Antiproliferative activity against human MCF7 cells upto 5 uM measured after 14 days by colony formation assay; assay type: functional, cell-based; conditions: time 14.0 day
4T1 [19] = experiment: Antiproliferative activity against 4T1 cells assessed as inhibition of cell viability by MTT assay; assay type: functional, cell-based; conditions: Mus musculus
MDA-MB-231 = experiment: Antiproliferative activity against human MDA-MB-231 cells assessed as inhibition of cell viability upto 10 uM incubated for 72 hrs by MTT assay; assay type: functional, cell-based
[20] = target: T1, Dual specificity protein kinase TTK (Homo sapiens); experiment: Inhibition of human Mps1 at 0.1 uM by KINOMEscan assay relative to control

Chain of Insulin-like growth factor 1 receptor (Homo sapiens) (P08069 31-736 limits assumed): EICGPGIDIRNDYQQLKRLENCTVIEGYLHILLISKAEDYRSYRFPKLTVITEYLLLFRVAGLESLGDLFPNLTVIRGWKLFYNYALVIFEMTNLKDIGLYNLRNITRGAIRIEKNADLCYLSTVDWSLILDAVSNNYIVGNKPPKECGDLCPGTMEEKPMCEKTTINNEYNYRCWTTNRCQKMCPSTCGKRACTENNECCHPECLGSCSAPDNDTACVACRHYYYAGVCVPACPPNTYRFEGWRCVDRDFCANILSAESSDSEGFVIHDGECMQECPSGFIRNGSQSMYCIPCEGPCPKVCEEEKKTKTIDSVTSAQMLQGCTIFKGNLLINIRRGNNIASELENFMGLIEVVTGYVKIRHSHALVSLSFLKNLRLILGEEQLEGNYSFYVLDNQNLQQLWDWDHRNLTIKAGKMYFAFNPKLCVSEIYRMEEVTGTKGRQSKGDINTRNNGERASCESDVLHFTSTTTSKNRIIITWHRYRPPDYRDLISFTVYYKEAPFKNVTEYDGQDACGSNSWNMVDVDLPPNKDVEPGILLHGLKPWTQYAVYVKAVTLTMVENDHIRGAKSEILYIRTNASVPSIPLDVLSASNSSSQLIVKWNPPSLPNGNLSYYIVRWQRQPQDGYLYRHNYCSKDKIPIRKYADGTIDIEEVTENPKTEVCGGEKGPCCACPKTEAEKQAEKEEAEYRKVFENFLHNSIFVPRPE
Chain of Insulin-like growth factor 1 receptor (Homo sapiens) (P08069 741-1367 limits assumed): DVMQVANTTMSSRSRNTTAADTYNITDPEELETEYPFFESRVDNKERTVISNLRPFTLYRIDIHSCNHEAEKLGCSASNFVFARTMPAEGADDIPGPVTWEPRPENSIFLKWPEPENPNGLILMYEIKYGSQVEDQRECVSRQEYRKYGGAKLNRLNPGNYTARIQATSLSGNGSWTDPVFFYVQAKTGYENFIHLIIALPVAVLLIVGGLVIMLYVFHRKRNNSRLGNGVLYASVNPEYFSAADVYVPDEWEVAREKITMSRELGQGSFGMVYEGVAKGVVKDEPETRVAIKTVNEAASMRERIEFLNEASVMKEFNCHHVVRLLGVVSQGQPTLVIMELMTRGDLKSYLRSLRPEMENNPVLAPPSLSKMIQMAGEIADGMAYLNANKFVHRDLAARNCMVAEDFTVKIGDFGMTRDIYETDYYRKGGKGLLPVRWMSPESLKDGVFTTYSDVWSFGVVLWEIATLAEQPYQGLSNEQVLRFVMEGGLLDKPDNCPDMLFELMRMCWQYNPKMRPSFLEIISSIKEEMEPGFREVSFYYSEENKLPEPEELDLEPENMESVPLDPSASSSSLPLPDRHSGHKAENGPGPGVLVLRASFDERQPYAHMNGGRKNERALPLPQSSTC
Chain of Hepatocyte growth factor receptor (Homo sapiens) (P08581 whole entry): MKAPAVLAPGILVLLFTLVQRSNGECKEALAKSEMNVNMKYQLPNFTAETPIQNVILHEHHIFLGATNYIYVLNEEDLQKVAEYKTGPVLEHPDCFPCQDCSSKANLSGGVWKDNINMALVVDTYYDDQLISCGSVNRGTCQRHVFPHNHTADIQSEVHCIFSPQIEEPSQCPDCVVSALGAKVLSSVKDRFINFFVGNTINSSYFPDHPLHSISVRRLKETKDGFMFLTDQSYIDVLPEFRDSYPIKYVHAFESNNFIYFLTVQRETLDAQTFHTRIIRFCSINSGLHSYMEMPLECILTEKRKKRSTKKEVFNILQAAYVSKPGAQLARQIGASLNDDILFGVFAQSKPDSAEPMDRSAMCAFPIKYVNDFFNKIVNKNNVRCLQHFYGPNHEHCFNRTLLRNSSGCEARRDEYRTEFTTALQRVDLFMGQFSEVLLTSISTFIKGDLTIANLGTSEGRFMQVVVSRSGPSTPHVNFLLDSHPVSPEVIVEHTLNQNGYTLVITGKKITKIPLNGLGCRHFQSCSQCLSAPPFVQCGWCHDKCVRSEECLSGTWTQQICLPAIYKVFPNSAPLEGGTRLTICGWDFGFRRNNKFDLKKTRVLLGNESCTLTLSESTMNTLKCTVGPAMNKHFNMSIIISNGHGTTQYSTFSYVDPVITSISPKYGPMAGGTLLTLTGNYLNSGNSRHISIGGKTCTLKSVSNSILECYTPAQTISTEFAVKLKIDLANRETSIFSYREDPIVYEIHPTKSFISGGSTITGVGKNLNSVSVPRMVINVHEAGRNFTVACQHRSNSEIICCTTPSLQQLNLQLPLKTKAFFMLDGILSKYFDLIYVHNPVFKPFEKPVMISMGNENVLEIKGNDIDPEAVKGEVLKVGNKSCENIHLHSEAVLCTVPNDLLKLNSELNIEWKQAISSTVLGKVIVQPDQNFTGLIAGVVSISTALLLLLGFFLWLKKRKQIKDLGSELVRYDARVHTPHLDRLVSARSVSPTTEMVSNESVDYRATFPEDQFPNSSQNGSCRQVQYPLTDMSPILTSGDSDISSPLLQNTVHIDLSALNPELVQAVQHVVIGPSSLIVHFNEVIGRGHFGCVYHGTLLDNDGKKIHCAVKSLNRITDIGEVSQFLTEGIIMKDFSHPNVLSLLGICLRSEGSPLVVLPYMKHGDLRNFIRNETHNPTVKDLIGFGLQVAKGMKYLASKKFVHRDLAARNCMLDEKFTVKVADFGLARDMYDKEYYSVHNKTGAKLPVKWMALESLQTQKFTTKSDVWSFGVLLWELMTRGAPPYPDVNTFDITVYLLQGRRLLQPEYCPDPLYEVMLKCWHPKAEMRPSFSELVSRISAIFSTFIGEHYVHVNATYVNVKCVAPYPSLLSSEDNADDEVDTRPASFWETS
Chain of ALK tyrosine kinase receptor (Homo sapiens) (Q9UM73 19-1620 limits assumed): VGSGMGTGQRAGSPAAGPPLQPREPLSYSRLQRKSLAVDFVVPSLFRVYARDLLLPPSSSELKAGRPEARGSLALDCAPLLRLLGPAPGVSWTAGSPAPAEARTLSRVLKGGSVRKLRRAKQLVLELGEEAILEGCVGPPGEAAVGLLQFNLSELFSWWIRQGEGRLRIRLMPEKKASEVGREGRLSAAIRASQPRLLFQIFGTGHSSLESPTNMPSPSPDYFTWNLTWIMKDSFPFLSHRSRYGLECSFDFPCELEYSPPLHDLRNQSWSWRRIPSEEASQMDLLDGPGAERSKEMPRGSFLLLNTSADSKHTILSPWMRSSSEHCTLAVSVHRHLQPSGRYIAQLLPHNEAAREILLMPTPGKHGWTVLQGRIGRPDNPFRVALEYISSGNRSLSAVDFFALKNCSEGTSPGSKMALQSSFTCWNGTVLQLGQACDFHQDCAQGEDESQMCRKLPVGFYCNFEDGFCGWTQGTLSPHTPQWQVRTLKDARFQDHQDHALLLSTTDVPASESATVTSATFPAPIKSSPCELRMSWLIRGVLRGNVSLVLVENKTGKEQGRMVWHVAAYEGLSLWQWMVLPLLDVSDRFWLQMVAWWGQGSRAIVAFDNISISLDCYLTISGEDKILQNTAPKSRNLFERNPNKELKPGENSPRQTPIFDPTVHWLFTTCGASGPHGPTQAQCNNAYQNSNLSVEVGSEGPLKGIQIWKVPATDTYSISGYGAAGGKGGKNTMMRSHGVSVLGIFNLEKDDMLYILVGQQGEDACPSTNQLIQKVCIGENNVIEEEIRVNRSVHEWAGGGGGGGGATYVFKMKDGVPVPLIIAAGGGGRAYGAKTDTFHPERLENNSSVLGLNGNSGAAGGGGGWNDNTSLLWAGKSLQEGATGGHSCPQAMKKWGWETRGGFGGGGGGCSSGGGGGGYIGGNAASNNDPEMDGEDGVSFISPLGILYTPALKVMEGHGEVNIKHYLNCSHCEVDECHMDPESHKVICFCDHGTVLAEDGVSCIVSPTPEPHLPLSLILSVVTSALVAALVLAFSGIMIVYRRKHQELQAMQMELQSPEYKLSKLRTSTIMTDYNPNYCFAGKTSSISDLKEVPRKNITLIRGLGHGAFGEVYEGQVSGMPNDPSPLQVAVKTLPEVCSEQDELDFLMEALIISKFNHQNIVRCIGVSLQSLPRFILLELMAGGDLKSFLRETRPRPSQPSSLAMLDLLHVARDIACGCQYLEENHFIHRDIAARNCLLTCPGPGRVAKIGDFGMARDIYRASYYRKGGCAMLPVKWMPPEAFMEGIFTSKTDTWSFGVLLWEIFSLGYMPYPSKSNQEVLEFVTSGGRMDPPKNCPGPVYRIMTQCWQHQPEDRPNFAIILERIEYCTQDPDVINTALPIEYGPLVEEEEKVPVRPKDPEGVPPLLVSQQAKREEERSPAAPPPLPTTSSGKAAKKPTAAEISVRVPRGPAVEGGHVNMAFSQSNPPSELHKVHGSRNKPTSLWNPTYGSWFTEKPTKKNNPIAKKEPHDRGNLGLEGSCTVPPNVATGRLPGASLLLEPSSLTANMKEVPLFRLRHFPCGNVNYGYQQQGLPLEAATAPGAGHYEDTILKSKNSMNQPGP

## CN1CCN(c2ccc(Nc3nc(-n4nc(N)c5ccccc54)c4cc[nH]c4n3)cc2)CC1
MCF7 [1]
  inhibition: Dose-Dependent Effect
MCF7 [2]
  Activity: 0.26%
GES1
  Activity: Non-Toxic
ES-2
  IC50: > 3000 nM
[3]
  inhibition: 98%
MCF7 [4]
  Activity: 6.54%
AGS
  IC50: > 3000 nM
HEK293
  Activity: Non-Toxic
MCF7 [5]
  Activity: Dose-Dependent Effect
[6]
  Activity: Non-Toxic
4T1 [7]
  Activity: 0.7%
[8]
  inhibition: 91%
[9]
  Activity: Non-Toxic
MCF7 [10]
  Activity: 2.3%
[11]
  inhibition: Active
HCT-116
  inhibition: Active
4T1 [12]
  Activity: 2.71%
[13]
  inhibition: 53%
[14]
  Activity: Non-Toxic
MCF7 [15]
  Activity: 17.53%
[16]
  inhibition: 100%
4T1-Luc
  Activity: Active
[17]
  Activity: Non-Toxic
MCF7 [18]
  Activity: Active
4T1 [19]
  IC50: 400 nM
MDA-MB-231
  inhibition: Active
[20]
  inhibition: 87%
